{"source": "paper PMC9851200", "about": "“Multiparameter phenotypic screening for endogenous TFEB and TFE3 translocation identifies novel chemical series modulating lysosome function” (Autophagy, 2022)", "origin": "cited, not measured here", "design_in_all_cases": "method as in original PKIS2 published data", "key": {"[1]": {"molecular_target": "T1, kinases (KINOMEscan panel) (Homo sapiens, UniProt P20794)", "T1 sequence (P20794 1-623)": "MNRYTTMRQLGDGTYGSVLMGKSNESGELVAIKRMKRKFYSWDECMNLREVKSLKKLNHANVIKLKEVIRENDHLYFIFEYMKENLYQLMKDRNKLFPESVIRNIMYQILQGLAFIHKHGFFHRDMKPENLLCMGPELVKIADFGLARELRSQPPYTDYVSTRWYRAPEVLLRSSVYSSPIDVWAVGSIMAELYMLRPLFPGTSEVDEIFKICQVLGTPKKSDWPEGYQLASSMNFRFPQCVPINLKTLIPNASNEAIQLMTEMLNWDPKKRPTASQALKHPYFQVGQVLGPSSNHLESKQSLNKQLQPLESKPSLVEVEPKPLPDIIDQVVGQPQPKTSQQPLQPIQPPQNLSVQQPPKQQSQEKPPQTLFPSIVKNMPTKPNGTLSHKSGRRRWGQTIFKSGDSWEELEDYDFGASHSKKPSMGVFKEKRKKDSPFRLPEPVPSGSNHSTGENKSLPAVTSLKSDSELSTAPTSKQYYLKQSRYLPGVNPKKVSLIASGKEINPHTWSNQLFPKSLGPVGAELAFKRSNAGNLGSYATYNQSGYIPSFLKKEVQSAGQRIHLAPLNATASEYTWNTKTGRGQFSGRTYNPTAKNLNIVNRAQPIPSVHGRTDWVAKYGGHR", "details": "Published KINOMEscan; ref original PKIS2 published data; cited from earlier work"}, "[2]": {"molecular_target": "kinases (KINOMEscan panel) (Homo sapiens, UniProt P19525)", "sequence (P19525 whole entry)": "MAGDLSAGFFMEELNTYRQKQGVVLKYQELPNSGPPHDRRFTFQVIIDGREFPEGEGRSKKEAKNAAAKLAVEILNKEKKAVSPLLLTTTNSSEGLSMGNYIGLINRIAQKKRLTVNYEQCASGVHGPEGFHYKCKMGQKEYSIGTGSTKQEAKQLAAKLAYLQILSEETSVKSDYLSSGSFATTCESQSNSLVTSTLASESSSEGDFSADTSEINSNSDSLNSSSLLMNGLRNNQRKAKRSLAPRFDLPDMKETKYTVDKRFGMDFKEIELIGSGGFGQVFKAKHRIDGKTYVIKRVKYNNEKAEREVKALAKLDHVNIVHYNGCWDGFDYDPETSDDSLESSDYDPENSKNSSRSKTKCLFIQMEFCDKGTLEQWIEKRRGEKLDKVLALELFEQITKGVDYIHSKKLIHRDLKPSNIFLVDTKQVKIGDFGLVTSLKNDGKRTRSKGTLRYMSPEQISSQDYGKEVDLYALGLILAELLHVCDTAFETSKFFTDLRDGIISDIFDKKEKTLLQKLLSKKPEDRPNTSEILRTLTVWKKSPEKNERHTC", "details": "kinase ElF2AK2; Published KINOMEscan; ref original PKIS2 published data; cited from earlier work"}, "[3]": {"molecular_target": "kinases (KINOMEscan panel) (Homo sapiens, UniProt P49841)", "sequence (P49841 whole entry)": "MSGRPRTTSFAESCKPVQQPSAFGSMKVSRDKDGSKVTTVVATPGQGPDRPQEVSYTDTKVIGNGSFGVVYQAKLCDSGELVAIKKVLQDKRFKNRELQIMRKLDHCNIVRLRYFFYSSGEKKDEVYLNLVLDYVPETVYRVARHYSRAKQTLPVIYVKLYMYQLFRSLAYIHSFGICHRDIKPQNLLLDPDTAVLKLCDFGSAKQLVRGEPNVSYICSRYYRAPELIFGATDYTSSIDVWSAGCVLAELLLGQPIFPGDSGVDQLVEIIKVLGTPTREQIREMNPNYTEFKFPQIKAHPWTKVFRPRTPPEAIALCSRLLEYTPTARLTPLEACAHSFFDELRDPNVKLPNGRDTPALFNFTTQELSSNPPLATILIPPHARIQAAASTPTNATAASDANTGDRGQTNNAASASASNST", "details": "Published KINOMEscan; ref original PKIS2 published data; cited from earlier work"}, "[4]": {"molecular_target": "kinases (KINOMEscan panel) (Homo sapiens, UniProt P06239)", "sequence (P06239 whole entry)": "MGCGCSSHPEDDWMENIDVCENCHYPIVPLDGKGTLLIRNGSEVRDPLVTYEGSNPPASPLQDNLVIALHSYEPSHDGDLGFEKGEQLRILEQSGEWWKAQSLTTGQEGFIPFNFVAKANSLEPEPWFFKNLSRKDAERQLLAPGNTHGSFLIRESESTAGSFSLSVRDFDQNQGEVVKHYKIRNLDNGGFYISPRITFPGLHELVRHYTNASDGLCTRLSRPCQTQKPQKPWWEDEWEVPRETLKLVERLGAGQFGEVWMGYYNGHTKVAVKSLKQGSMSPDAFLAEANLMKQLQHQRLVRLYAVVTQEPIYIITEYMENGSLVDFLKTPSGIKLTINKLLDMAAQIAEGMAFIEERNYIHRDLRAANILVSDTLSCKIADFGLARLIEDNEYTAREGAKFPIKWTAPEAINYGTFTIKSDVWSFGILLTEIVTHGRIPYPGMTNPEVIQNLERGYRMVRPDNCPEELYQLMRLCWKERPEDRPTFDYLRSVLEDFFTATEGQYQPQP", "details": "LCK; Published KINOMEscan; ref original PKIS2 published data; cited from earlier work"}, "[5]": {"molecular_target": "T2, kinases (KINOMEscan panel) (Homo sapiens, UniProt P51817)", "T2 sequence (P51817 1-358)": "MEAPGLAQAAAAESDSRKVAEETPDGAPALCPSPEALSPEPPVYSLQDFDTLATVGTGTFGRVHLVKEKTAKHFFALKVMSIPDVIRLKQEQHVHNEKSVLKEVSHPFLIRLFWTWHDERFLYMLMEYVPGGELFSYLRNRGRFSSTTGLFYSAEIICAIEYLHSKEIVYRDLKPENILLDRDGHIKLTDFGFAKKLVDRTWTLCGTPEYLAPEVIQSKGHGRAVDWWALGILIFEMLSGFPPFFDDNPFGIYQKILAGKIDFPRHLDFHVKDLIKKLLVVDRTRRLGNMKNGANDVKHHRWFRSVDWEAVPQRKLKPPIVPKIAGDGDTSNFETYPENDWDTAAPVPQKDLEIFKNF", "details": "kinase PRKX; Published KINOMEscan; ref original PKIS2 published data; cited from earlier work"}, "[6]": {"molecular_target": "kinases (KINOMEscan panel) (Homo sapiens, UniProt Q16512)", "sequence (Q16512 whole entry)": "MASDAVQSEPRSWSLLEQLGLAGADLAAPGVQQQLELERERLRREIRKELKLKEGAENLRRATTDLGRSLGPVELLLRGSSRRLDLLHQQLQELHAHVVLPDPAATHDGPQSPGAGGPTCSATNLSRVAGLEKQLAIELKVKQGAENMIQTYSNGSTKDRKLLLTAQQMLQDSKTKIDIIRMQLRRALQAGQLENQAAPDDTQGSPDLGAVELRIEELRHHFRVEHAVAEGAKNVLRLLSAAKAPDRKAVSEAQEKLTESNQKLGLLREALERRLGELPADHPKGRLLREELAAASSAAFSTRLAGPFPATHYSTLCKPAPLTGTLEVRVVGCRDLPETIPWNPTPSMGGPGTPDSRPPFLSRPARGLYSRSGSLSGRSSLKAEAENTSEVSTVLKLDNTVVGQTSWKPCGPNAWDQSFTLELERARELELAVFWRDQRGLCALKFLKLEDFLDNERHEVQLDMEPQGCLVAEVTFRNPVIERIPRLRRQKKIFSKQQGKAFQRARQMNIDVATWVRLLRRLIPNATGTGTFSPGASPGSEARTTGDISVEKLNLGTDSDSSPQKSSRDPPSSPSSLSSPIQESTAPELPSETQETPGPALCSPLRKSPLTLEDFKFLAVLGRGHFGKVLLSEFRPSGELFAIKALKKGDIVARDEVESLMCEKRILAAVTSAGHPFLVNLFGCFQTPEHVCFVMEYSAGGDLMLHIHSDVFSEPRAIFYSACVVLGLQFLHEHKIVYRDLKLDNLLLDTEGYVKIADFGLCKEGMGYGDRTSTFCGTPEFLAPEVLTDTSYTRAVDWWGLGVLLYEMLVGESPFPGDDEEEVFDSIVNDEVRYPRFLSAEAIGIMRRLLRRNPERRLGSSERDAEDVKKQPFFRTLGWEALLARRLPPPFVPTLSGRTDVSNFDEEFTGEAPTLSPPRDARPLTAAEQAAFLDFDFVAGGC", "details": "Published KINOMEscan; ref original PKIS2 published data; cited from earlier work"}, "[7]": {"molecular_target": "T3, kinases (KINOMEscan panel) (Homo sapiens, UniProt Q8TF76)", "T3 sequence (Q8TF76 1-798)": "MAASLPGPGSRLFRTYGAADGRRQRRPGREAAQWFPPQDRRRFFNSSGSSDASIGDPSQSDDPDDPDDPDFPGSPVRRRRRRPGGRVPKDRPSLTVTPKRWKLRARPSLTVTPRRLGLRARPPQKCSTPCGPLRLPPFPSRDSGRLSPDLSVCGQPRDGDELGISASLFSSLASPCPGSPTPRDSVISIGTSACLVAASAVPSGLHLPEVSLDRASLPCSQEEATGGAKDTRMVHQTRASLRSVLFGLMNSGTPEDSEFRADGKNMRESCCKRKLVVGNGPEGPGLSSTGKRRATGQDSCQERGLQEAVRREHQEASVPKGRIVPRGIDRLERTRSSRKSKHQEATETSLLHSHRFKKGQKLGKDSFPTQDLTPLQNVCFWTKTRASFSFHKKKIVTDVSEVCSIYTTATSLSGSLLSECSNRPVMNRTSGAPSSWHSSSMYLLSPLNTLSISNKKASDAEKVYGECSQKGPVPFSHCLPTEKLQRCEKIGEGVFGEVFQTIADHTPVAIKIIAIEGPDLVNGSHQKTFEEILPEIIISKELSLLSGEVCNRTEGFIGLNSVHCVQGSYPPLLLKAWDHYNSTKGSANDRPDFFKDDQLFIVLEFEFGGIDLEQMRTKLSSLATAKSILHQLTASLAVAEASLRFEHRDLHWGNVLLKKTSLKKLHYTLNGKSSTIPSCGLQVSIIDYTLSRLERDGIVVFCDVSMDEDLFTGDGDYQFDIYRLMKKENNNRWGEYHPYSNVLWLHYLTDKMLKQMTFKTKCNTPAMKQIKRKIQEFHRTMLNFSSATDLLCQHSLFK", "details": "HASPIN; Published KINOMEscan; ref original PKIS2 published data; cited from earlier work"}, "[8]": {"molecular_target": "kinases (KINOMEscan panel) (Homo sapiens, UniProt P22607)", "sequence (P22607 23-806)": "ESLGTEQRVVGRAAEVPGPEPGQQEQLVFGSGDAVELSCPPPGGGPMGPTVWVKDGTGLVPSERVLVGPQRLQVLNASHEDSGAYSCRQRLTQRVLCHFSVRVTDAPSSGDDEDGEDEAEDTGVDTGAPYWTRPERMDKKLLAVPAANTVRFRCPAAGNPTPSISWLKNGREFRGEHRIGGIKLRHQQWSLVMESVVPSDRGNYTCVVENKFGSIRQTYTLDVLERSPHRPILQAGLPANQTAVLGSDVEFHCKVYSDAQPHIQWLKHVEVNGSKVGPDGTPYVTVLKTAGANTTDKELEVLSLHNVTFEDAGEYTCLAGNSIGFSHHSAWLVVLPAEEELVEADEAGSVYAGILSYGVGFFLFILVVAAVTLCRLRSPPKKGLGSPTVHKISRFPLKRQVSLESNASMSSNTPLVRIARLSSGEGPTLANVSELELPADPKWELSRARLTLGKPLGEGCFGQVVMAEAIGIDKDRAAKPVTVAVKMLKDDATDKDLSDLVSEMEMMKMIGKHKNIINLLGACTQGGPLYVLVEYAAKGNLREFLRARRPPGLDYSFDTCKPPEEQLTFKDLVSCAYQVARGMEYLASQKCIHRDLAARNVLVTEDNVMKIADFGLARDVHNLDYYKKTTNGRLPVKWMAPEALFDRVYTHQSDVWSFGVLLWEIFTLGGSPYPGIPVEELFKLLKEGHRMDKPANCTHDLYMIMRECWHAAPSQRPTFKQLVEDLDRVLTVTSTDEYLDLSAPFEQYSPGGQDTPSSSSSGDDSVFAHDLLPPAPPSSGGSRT", "details": "FGFR3; Published KINOMEscan; ref original PKIS2 published data; cited from earlier work"}, "[9]": {"molecular_target": "T4, kinases (KINOMEscan panel) (Homo sapiens, UniProt P15735)", "T4 sequence (P15735 1-406)": "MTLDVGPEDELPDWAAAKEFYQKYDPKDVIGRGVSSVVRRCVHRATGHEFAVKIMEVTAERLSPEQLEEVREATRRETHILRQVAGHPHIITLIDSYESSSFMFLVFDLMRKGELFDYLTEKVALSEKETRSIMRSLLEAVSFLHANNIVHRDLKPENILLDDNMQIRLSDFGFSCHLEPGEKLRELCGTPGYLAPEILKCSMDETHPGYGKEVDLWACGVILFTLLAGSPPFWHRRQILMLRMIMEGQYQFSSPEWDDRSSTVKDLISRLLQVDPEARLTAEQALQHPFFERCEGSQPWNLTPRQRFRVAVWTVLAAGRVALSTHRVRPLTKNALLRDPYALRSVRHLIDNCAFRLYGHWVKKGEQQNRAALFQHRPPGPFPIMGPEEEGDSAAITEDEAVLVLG", "details": "kinase PHKG2; Published KINOMEscan; ref original PKIS2 published data; cited from earlier work"}}, "data": [{"smiles": "Cc1cccc(-c2nc(Nc3ccncc3)c3ccccc3n2)n1", "note": "[NK215]", "values": [{"measurement": "KINOMEscan MAK", "setting": "[1]", "result": 0}, {"measurement": "KINOMEscan ElF2AK2", "setting": "[2]", "result": 2}, {"measurement": "KINOMEscan GSK3B", "setting": "[3]", "result": 0}, {"measurement": "KINOMEscan LCK", "setting": "[4]", "result": 9}, {"measurement": "KINOMEscan PRKX", "setting": "[5]", "result": 0}, {"measurement": "KINOMEscan PKN1", "setting": "[6]", "result": 0}, {"measurement": "KINOMEscan HASPIN", "setting": "[7]", "result": 26}, {"measurement": "KINOMEscan FGFR3", "setting": "[8]", "result": 2}, {"measurement": "KINOMEscan PHKG2", "setting": "[9]", "result": 3}]}]}
